Reference: patent US12600725B2 (Memorial Sloan-Kettering Cancer Center, priority 2013, dated 2026)
Entries after “also recorded” stand apart in the source; their conditions may differ. Read-outs that look alike come from different tables or passages of the source.

Legend:
in vivo = experiment: in vivo; design: species or system mouse
NCI-N87 cells = experiment: Apoptosis assessment (Annexin V / 7AAD); assay type: cell-based
Source text: (§1) Annexin V Apoptosis with 7-AAD has been specifically designed for the identification of apoptotic and necrotic cells. Annexin V (or Annexin A5) is a member of the annexin family of intracellular proteins that binds to phosphatidylserine (PS) in a calcium-dependent manner. PS is normally only found on the intracellular leaflet of the plasma membrane in healthy cells, but during early apoptosis, membrane asymmetry is lost and PS translocates to the external leaflet. Fluorochrome-labeled Annexin V can then be used to specifically target and identify apoptotic cells. Annexin V binding alone cannot differentiate between apoptotic and necrotic cells. To help distinguish between the necrotic and apoptotic cells 7-amino-actinomycin D (7-AAD) is used. Early apoptotic cells will exclude 7-AAD, while late stage apoptotic cells will stain positively, due to the passage of these dyes into the nucleus where they bind to DNA. 7-AAD (7-amino-actinomycin D) has a high DNA binding constant and is efficiently excluded by intact cells. It is useful for DNA analysis and dead cell discrimination during flow cytometric analysis. When excited by 488 laser light, 7-AAD fluorescence is detected in the far red range of the spectrum (650 nm long-pass filter).
(§2) Cell cycle and apoptosis assessment. Cell cycle and apoptosis were assessed by flow cytometry after single staining with propidium iodide (PI, BD Pharmingen) or double staining with AnnexinV-FITC (BD Pharmingen) and 7AAD (BD Pharmingen), respectively. Specifically, for cell cycle analysis, cells were washed twice with cold PBS and fixed in 70% ethanol overnight at 4° C. Fixed cells were collected at 1800 rpm for 10 min and stained with PBS containing PI and DNase-free RNase A (Sigma-Aldrich) for 1 h at room temperature in the dark. DNA content was measured by BD LSRII flow cytometer and cell further analyzed using program of cell cycle analysis in FloJo (Ashland, OR). The chicken erythrocyte nuclei singlets (CEN, Biosure) were used as the reference. For apoptosis assessment, live cells were collected, washed twice with cold PBS, resuspended in Binding Buffer and stained with AnnexinV-FITC and 7AAD for 15 min at room temperature in the dark. Signals from FL1 and FL3 channels were collected by MACSQuant analyzer and further analyzed using FloJo. Early apoptosis was defined as AnnexinV+/7AAD−, and late apoptosis was observed as AnnexinV+/7AAD+.

OE19 cells = experiment: Apoptosis assessment (Annexin V / 7AAD); assay type: cell-based
Source text: as §1, §2

PANC-1 cells = experiment: Apoptosis assessment (Annexin V / 7AAD); assay type: cell-based
Source text: as §1, §2

[1] = system: TLR9 ligand CpG DNA induced TNF-α production in RAW 264.7 macrophages; experiment: TNFα ELISA, CpG DNA stimulated macrophages; assay type: cell-based, mouse
[2] = system: IGF-II secretion by differentiated C2C12 cells; experiment: C2C12 differentiation and IGF-II secretion assay; assay type: cell-based, mouse; conditions: 24 hrs treatment
Source text: C2C12 differentiation and IGF-II secretion assay (Wanderling, S. et al. GRP94 is essential for mesoderm induction and muscle development because it regulates insulin-like growth factor secretion. Mol. Biol. Cell 18, 3764-75 (2007); Ostrovsky, O., Ahmed, N.T. & Argon, Y. The chaperone activity of GRP94 toward insulin-like growth factor II is necessary for the stress response to serum deprivation. Mol. Biol. Cell 20, 1855-64 (2009)). C2C12 cells were maintained and cultured in DMEM in the presence of 10% FBS and 1% penicillin/streptomycin (Culture medium). C2C12 is an immortal line of mouse skeletal myoblasts originally derived from satellite cells from the thigh muscle of a two month old female mouse donor. These cells differentiate well into myocytes under appropriate culture conditions. […] Secreted IGF-II was quantified by using IGF-II mouse ELISA kit (Abcam, AB100696) according to the manufacturer's instructions. […] The bound IGF-II was detected with a biotinylated anti-IGF-II antibody. After the sequential incubation with HRP conjugated streptavidin, TMB One-step substrate reagent and the Stop solution, the absorbance was measured at 450 nm. The secreted IGF-II was quantified against a standard curve generated with recombinant IGF-II provided by the kit.

**Q.** With `CC(C)NCCCn1c(Sc2cc(Cl)cc(Cl)c2)nc2c(N)ncnc21` [PU-WS13] as the compound, how does the “AUC0-24h for stomach relative to tumor AUC0-24h” value (in vivo; 75 mg/kg ip) read?
**A.** The value was 1.4 fold.

**Q.** And the “AUC0-24h for the large intestine relative to tumor AUC0-24h” value (in vivo; 75 mg/kg ip)?
**A.** Its value is 2 fold.

**Q.** And the concentration at 2 h (in vivo; female, nu/nu athymic, mouse, plasma, intraperitoneal, 75 mg/kg ip, read-out: PU-WS13 level in the plasma)?
**A.** Its concentration at 2 h is 100 µM.

**Q.** What about the AUC(0-t) (in vivo; female, nu/nu athymic, mouse, plasma, 75 mg/kg ip, read-out: AUC0-24 h plasma) of the same compound?
**A.** The AUC(0-t) was 1260 µM·h.

**Q.** And the concentration at 2 h (in vivo; female, nu/nu athymic, mouse, tumor, intraperitoneal, 75 mg/kg ip, read-out: PU-WS13 level in tumor)?
**A.** The concentration at 2 h was roughly 850 µM.

**Q.** What about the concentration at 24 h (in vivo; female, nu/nu athymic, mouse, tumor, intraperitoneal, single dose of 75 mg/kg, 24 h post-administration) of the same compound?
**A.** Its concentration at 24 h is 0.5 µM.

**Q.** What about the AUC(0-t) (in vivo; female, nu/nu athymic, mouse, tumor, 75 mg/kg ip, read-out: AUC0-24 h tumor) of the same compound?
**A.** Its AUC(0-t) is 9130 µM·h.

**Q.** What about the “cells exhibiting markers of early- and late-stage apoptosis” value (NCI-N87 cells) of the same compound?
**A.** Its value is “substantial increase”.

**Q.** What about the “cells exhibiting markers of early- and late-stage apoptosis” value (OE19 cells) of the same compound?
**A.** The value was “substantial increase”.

**Q.** And the induction of apoptosis (PANC-1 cells)?
**A.** Its induction of apoptosis is “substantial increase; also recorded: more potent at killing cells through apoptosis”.

**Q.** And the “CpG DNA induced TNF-α production” value [1]?
**A.** The value was “inhibited this response in a concentration dependent manner; also recorded: inhibit”.

**Q.** What about the IGF-II secretion [2] of the same compound?
**A.** Its IGF-II secretion is “inhibited IGF-II secretion”.
